This is an account of results in ChEMBL document CHEMBL4627392, “Streptomyces albogriseolus SY67903 Produces Eunicellin Diterpenoids Structurally Similar to Terpenes of the Gorgonian Muricella sibogae, the Bacterial Source” (J Nat Prod, 2020).

Molecules are shown by their SMILES. pIC50: −log10 of the molar value. Calls of active or inactive are those of the source. The calls are words filed in the database; no cut-off is given here.

Holding throughout (type): functional, cell-based
For one experiment, the system named is A549. The experiment can be described thus: Cytotoxicity against human A549 cells after 44 hrs by MTT assay. (Tetrazolium assays rely on reduction of a dye to a coloured formazan, in cell work by metabolically active cells.)
The test system of the next experiment is MCF7. Briefly: Cytotoxicity against human MCF7 cells after 44 hrs by MTT assay. The settings on record: MCF7, 44 h.
Another experiment concerns HepG2. Briefly: Cytotoxicity against human HepG2 cells after 44 hrs by MTT assay.
The next experiment relates to MDA-MB-231. Briefly: Cytotoxicity against human MDA-MB-231 cells after 44 hrs by MTT assay. The conditions noted are these: MDA-MB-231, 44 h.
The test system of another experiment is HCT-116. The experiment can be described thus: Cytotoxicity against human HCT116 cells after 44 hrs by MTT assay.
The test system of another experiment is NCI-H292. Briefly: Cytotoxicity against human NCI-H292 cells after 44 hrs by MTT assay.

Consider `C=C1CC[C@@H](C(C)C)[C@H]2/C=C(/C(=O)OC)CC/C=C(\C(=O)O)[C@H](O)C[C@H]12`, for which the pIC50 with A549 (A549, 44 h) was less than 4.00; in the experiment with MCF7, less than 4.00; in the experiment on HepG2 (HepG2, 44 h), less than 4.00; in the experiment with MDA-MB-231, less than 4.00; in the experiment with HCT-116 (HCT-116, 44 h), less than 4.00; in the experiment on NCI-H292 (NCI-H292, 44 h) it was less than 4.00.

Turning to `C=C1CCC(=C(C)C)[C@H]2/C=C(/C(=O)OC)CC/C=C(\C(=O)O)[C@H](O)C[C@H]12`, the result in the experiment with A549, with HepG2, in the experiment with HCT-116 and in the experiment on NCI-H292 was Active. In addition, the pIC50 in the experiment with MCF7 is 5.28; with MDA-MB-231, 5.07.

One may read the pIC50 as −log10 of the IC50, conventionally taken in molar units.
